Laboratory results from patent US12195427B2, “MASP-2 inhibitors and methods of use” (priority 2018, dated 2025).

Target: MASP-2 CCP2-SP (Homo sapiens (Human), UniProt O00187)
Test: MASP-2 co-crystallization, X-ray crystallography and structure analysis (H-bonds, van der Waals contacts)
Design: van der Waals contact distance, MASP-2 HIS 483 atom CD2 / van der Waals contact distance, MASP-2 HIS 483 atom NE2 / van der Waals contact distance, SER 654 C to compound atom / van der Waals contact distance, SER 654 O to compound atom / van der Waals contact distance, TRP 655 C to compound atom / van der Waals contact distance, MASP-2 GLY 528 atom CA / van der Waals contact distance TRP 655 atom CZ3 / van der Waals contact distance TRP 655 atom N / van der Waals contact distance TRP 655 atom CE3 / van der Waals contact distance GLY 656 atom C / van der Waals contact distance GLY 656 atom CA / van der Waals contact distance GLY 656 atom O / van der Waals contact distance, MASP-2 TYR 607 atom CD1 / van der Waals contact distance, MASP-2 PRO 606 atom O / d(C3,CA1) / d(CA1,N1)2 / d(H4,O1) / d(H4,O2) / d(O1,O2) / d(CA1,O2) / d(CA6,O1) / d(CA6,O2) / d(CA1,C5) / d(O2,H3) / d(N2,C2) / d(CA5,N2) / d(N2,C4) / d(N2,C6) / d(N2,CA3) / d(N2,O3) / d(O4,H2): unit not given beside the values
Settings: for H-bond distance to MASP-2 ASP 627 atom OD2: ASP 627 OD2; for H-bond distance to MASP-2 GLY 656 atom N: GLY 656 N; for H-bond distance to MASP-2 GLY 656 atom O: GLY 656 O; for H-bond distance to MASP-2 SER 628 atom O: SER 628 O; for H-bond distance to MASP-2 SER 654 atom O: SER 654 O; for H-bond distance to MASP-2 SER 657 atom O: SER 657 O; for van der Waals contact distance, MASP-2 HIS 483 atom CD2 / van der Waals contact distance, MASP-2 HIS 483 atom NE2: Table A2-1; for van der Waals contact distance, MASP-2 TYR 607 atom CD1: Table A2-4; for van der Waals contact distance, MASP-2 amino acid atom to compound atom: ARG 630; for van der Waals contact distance, VAL 653 CG1 to compound atom / van der Waals contact distance, SER 654 C to compound atom: Table A2-11; for van der Waals contact distance TRP 655 atom CE3: MASP-2 TRP 655 CE3, compound atom in line below; for van der Waals contact distance GLY 656 atom C: MASP-2 GLY 656 C
Summary of the method: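 Human MASP-2 CCP2-SP, untagged or 6His-tagged, was expressed in E. coli and crystallized. Crystals were soaked with inhibitor in crystallization solution, flash-cooled in liquid nitrogen, and diffracted with synchrotron X-rays (wavelength 1.0). Structures were solved by molecular replacement from 1Q3X and partially refined.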

Chain of MASP-2 CCP2-SP (O00187 445-686): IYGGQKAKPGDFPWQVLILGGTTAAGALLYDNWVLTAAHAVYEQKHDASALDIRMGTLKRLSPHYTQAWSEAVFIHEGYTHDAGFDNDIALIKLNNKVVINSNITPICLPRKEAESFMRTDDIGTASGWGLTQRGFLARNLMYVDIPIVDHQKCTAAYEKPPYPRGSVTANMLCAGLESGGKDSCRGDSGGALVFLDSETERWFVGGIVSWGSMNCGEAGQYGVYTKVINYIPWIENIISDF
Chain of MASP-2 CCP2-SP (O00187 364-432 partner): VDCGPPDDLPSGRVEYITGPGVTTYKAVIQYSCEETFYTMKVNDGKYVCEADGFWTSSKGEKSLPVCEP

| SMILES | H-bond distance to MASP-2 ASP 627 atom OD2 (Table A1 (H-Bonds)) | H-bond distance to MASP-2 GLY 656 atom N (Table A1 (H-Bonds)) | H-bond distance to MASP-2 GLY 656 atom O (Table A1 (H-Bonds)) | H-bond distance to MASP-2 SER 628 atom O (Table A1 (H-Bonds)) | H-bond distance to MASP-2 SER 654 atom O (Table A1 (H-Bonds)) | H-bond distance to MASP-2 SER 657 atom O (Table A1 (H-Bonds)) | van der Waals contact distance, MASP-2 HIS 483 atom CD2 | van der Waals contact distance, MASP-2 HIS 483 atom NE2 | van der Waals contact distance, MASP-2 TYR 607 atom CD1 | van der Waals contact distance, MASP-2 amino acid atom to compound atom (Table A2-9, AA atoms CG, CZ) | van der Waals contact distance, VAL 653 CG1 to compound atom | van der Waals contact distance, SER 654 O to compound atom (Table A2-12) | van der Waals contact distance TRP 655 atom CE3 (Table A2-13) | van der Waals contact distance, MASP-2 PHE 529 atom CZ (Table A2-3) | van der Waals contact distance GLY 656 atom C (Table A2-13) | van der Waals contact distance, SER 654 C to compound atom | also measured |
| --- | --- | --- | --- | --- | --- | --- | --- | --- | --- | --- | --- | --- | --- | --- | --- | --- | --- |
| Cc1nc(N)ccc1CNC(=O)[C@H](C)NC(=O)[C@H]1C[C@@H](c2cccc3ccccc23)CCN1 [compound 1297, (2R,4S)—N—((S)-1-(((6-Amino-2-methylpyridin-3-yl)methyl)amino)-1-oxopropan-2-yl)-4-(naphthalen-1-yl)piperidine-2-carboxamide] | 3.13 | 3.33 | 2.67 | 2.96 | 2.88 | 3.06 | 3.74 | 3.84 | 3.81 | 3.47 | 3.22 | 3.51 | 3.54 |  |  |  | van der Waals contact distance, MASP-2 GLY 528 atom CA (Table A2-2): 3.76; van der Waals contact distance, TRP 655 C to compound atom (Table A2-12): 3.89; van der Waals contact distance, TRP 655 CA to compound atom (Table A2-12): 3.49 |
| C[C@H](NC(=O)[C@H]1C[C@H](Cc2ccccc2)CN1)C(=O)NCc1ccc(C(=N)N)cc1 [compound 1306, (2R,4S)-4-Benzyl-N—((S)-1-((4-carbamimidoylbenzyl)amino)-1-oxopropan-2-yl)pyrrolidine-2-carboxamide] | 2.6 | 3.05 | 2.69 | 2.24 |  | 2.87 | 3.47 | 3.32 | 3.85 |  |  |  |  | 3.63 | 3.54 |  | van der Waals contact distance, MASP-2 amino acid atom to compound atom (Table A2-9 second part, AA atoms N, NE, NH1): 3.76; van der Waals contact distance GLY 656 atom CA (Table A2-13, MASP-2 GLY 656 CA): 3.61 |
| Cc1nc(N)ccc1CNC(=O)[C@H](C)NC(=O)[C@H]1C[C@H](Cc2cccc(Cl)c2)CN1 [compound 1328, (2R,4S)—N—((S)-1-(((6-amino-2-methylpyridin-3-yl)methyl)amino)-1-oxopropan-2-yl)-4-(3-chlorobenzyl)pyrrolidine-2-carboxamide] |  | 3.33 | 2.82 | 3.06 | 2.67 | 2.44 | 3.79 | 3.73 |  |  | 3.23 |  | 3.49 |  |  | 3.62 | van der Waals contact distance, MASP-2 PHE 529 atom CD1 (Table A2-3): 3.78; van der Waals contact distance TRP 655 atom CZ3 (Table A2-13, MASP-2 TRP 655 CZ3): 3.53 |
| CC(=O)Nc1ccc(CCN[C@H](CCc2ccccc2)C(=O)N[C@@H](C)C(=O)NCc2ccc(C(=N)N)cc2)cc1 [compound 1345, (R)-2-((4-acetamidophenethyl)amino)-N—((S)-1-((4-carbamimidoylbenzyl)amino)-1-oxopropan-2-yl)-4-phenylbutanamide] |  | 3.05 | 3.13 | 2.64 | 3.02 | 3.01 | 3.69 | 3.37 |  | 3.52 |  | 3.75 |  | 3.88 | 3.74 | 3.84 | H-bond distance to MASP-2 ARG 630 atom NH1 (second bond) (Table A1 (H-Bonds), ARG 630 NH1): 2.37; H-bond distance to MASP-2 GLN 665 atom OE1 (Table A1 (H-Bonds), GLN 665 OE1): 2.63 |
